Measurements reported in US5789431A, “Naphthoquinone antitumor compound and method” (The University of North Carolina at Chapel Hill, priority 1996, dated 1998).

Legend:
DMS 114 = experiment: in vitro small cell lung cancer cell growth inhibition (NCI screen); assay type: cell-based, human; conditions: for GI50: Homo sapiens, read-out: cytotoxicity log GI50 (converted)
DMS 273 = experiment: as above; assay type: cell-based; conditions: Homo sapiens, read-out: cytotoxicity log GI50 (converted)

| Compound | GI50 (DMS 114) | GI50 (DMS 273) | cytotoxicity log GI50 (DMS 114) |
| --- | --- | --- | --- |
| O=C(Cc1ccccc1F)NC1=C(Cl)C(=O)c2ccccc2C1=O [Compound 2i, 2-(2-Fluorophenyl)acetamido-3-chloro-1,4-naphthoguinone] | 0.174 µM |  |  |
| NC1=C(NC(=O)Cc2ccc(F)cc2)C(=O)c2ccccc2C1=O [Compound 3c] |  | 33.9 µM |  |
| O=C1c2ccccc2C(=O)c2[nH]c(Cc3ccccc3F)nc21 [Compound 4b] | 33.9 µM | 34.7 µM |  |
| CCn1c(C)nc2c1C(=O)c1ccccc1C2=O [Compound 5, 1-ethyl-2-methylnaphth-[2,3-d]imidazole-4,9-dione] | 0.275 µM | 1.66 µM | -6.56 M |
| CCC(C)n1c(C)nc2c1C(=O)c1ccccc1C2=O (centres unmarked) [Compound 6] |  | 33.9 µM |  |
| Cc1nc2c(n1CC(C)C)C(=O)c1ccccc1C2=O [Compound 7] |  | 26.9 µM |  |
| Cc1nc2c(n1C(C)(C)C)C(=O)c1ccccc1C2=O [Compound 8] |  | 52.5 µM |  |
| CCCC(C)n1c(C)nc2c1C(=O)c1ccccc1C2=O (centres unmarked) [Compound 9] |  | 7.24 µM |  |
| CCC(CC)n1c(C)nc2c1C(=O)c1ccccc1C2=O [Compound 10] |  | 22.9 µM |  |
| Cc1nc2c(n1CCC(C)C)C(=O)c1ccccc1C2=O [Compound 11] |  | 11 µM |  |
| CCC(C)(C)n1c(C)nc2c1C(=O)c1ccccc1C2=O [Compound 12] |  | 11.7 µM |  |
| CCC(C)Cn1c(C)nc2c1C(=O)c1ccccc1C2=O (centres unmarked) [Compound 13] |  | 9.77 µM |  |
| Cc1nc2c(n1CCO)C(=O)c1ccccc1C2=O [Compound 16] |  | 20 µM |  |
| Cc1ccc(Cn2c(C)nc3c2C(=O)c2ccccc2C3=O)cc1 [Compound 17] |  | 1.07 µM |  |
| COc1ccc(Cn2c(C)nc3c2C(=O)c2ccccc2C3=O)cc1 [Compound 18] |  | 3.31 µM |  |
| Cc1nc2c(n1Cc1ccc(F)cc1)C(=O)c1ccccc1C2=O [Compound 19] |  | 6.46 µM |  |
| Cc1nc2c(n1Cc1ccc(Cl)cc1)C(=O)c1ccccc1C2=O [Compound 20] |  | 2.63 µM |  |
| CCC(C)NC1=C(NC(C)=O)C(=O)c2ccccc2C1=O (centres unmarked) [Compound 30] | 28.2 µM | 27.5 µM |  |
| CC(=O)NC1=C(NCC(C)C)C(=O)c2ccccc2C1=O [Compound 31] | 14.8 µM | 14.5 µM |  |
| CC(=O)NC1=C(NCCN(C)C)C(=O)c2ccccc2C1=O [Compound 39] |  | 11.7 µM |  |
| CCn1c(Cc2ccc(F)cc2)nc2c1C(=O)c1ccccc1C2=O [Compound 66] |  | 9.77 µM |  |
